From the NIST ThermoML archive (doi:10.1016/j.fluid.2018.04.007)

What was measured:
[1] = relative permittivity at various frequencies (dimensionless); xn = mol fraction of the nth substance listed; details: 101 kPa, Liquid, Frequency=1 MHz, Parallel plate capacitor
[2] = refractive index (Na D-line) (dimensionless); xn = mol fraction of the nth substance listed; details: 101 kPa, Liquid, Standard Abbe refractometry

CCCCCCN [1-hexanamine] + CO
Details | refractive index, 293.15 K | refractive index, 298.15 K | refractive index, 303.15 K | relative permittivity, 293.15 K | relative permittivity, 298.15 K
[1], x2 = 0 | – | – | – | 3.964 | 3.904
[1], x2 = 0.0534 | – | – | – | 4.367 | 4.293
[1], x2 = 0.122 | – | – | – | 4.964 | 4.87
[1], x2 = 0.1906 | – | – | – | 5.681 | 5.564
[1], x2 = 0.3081 | – | – | – | 7.244 | 7.085
[1], x2 = 0.395 | – | – | – | 8.783 | 8.557
[1], x2 = 0.4982 | – | – | – | 11.109 | 10.806
[1], x2 = 0.6035 | – | – | – | 14.21 | 13.794
[1], x2 = 0.7016 | – | – | – | 17.646 | 17.127
[1], x2 = 0.8002 | – | – | – | 21.864 | 21.254
[1], x2 = 0.8485 | – | – | – | 24.251 | 23.597
[1], x2 = 0.8984 | – | – | – | 26.928 | 26.203
[1], x2 = 0.9496 | – | – | – | 30.037 | 29.216
[1], x2 = 0.9834 | – | – | – | 32.343 | 31.44
[2], x2 = 0 | 1.41808 | 1.41563 | 1.41321 | – | –
[2], x2 = 0.0534 | 1.41741 | 1.41499 | 1.41261 | – | –
[2], x2 = 0.0942 | 1.41681 | 1.41442 | 1.41204 | – | –
[2], x2 = 0.1871 | 1.41513 | 1.41282 | 1.4104 | – | –
[2], x2 = 0.2977 | 1.4125 | 1.41017 | 1.40773 | – | –
[2], x2 = 0.4039 | 1.40889 | 1.40657 | 1.40412 | – | –
[2], x2 = 0.4917 | 1.4048 | 1.40243 | 1.4 | – | –
[2], x2 = 0.5977 | 1.3979 | 1.3955 | 1.39316 | – | –
[2], x2 = 0.6997 | 1.38836 | 1.38615 | 1.38372 | – | –
[2], x2 = 0.7995 | 1.37505 | 1.37296 | 1.37067 | – | –
[2], x2 = 0.8475 | 1.36685 | 1.36479 | 1.36257 | – | –
[2], x2 = 0.8978 | 1.35657 | 1.3546 | 1.3524 | – | –
[2], x2 = 0.9496 | 1.34385 | 1.34182 | 1.33968 | – | –
[2], x2 = 0.9834 | 1.33399 | 1.33194 | 1.3298 | – | –

CCCCCCN [1-hexanamine] + CCCO
Details | refractive index, 293.15 K | refractive index, 298.15 K | refractive index, 303.15 K | relative permittivity, 293.15 K | relative permittivity, 298.15 K | relative permittivity, 303.15 K
[1], x2 = 0 | – | – | – | 3.964 | 3.904 | 3.846
[1], x2 = 0.0708 | – | – | – | 4.411 | 4.336 | 4.263
[1], x2 = 0.1073 | – | – | – | 4.663 | 4.578 | 4.499
[1], x2 = 0.147 | – | – | – | 4.953 | 4.857 | 4.77
[1], x2 = 0.1935 | – | – | – | 5.33 | 5.222 | 5.123
[1], x2 = 0.307 | – | – | – | 6.436 | 6.286 | 6.148
[1], x2 = 0.3941 | – | – | – | 7.471 | 7.279 | 7.102
[1], x2 = 0.5056 | – | – | – | 9.113 | 8.85 | 8.605
[1], x2 = 0.6097 | – | – | – | 10.99 | 10.649 | 10.324
[1], x2 = 0.6977 | – | – | – | 12.847 | 12.426 | 12.034
[1], x2 = 0.8044 | – | – | – | 15.469 | 14.948 | 14.463
[1], x2 = 0.8406 | – | – | – | 16.431 | 15.885 | 15.354
[1], x2 = 0.8989 | – | – | – | 18.08 | 17.478 | 16.902
[1], x2 = 0.9504 | – | – | – | 19.605 | 18.955 | 18.33
[2], x2 = 0 | 1.41808 | 1.41563 | 1.41321 | – | – | –
[2], x2 = 0.052 | 1.41775 | 1.41529 | 1.41292 | – | – | –
[2], x2 = 0.1015 | 1.41735 | 1.41492 | 1.41258 | – | – | –
[2], x2 = 0.1475 | 1.41693 | 1.41452 | 1.41223 | – | – | –
[2], x2 = 0.2108 | 1.41627 | 1.41393 | 1.4116 | – | – | –
[2], x2 = 0.2983 | 1.41509 | 1.41276 | 1.41049 | – | – | –
[2], x2 = 0.3967 | 1.41351 | 1.4112 | 1.40878 | – | – | –
[2], x2 = 0.4998 | 1.41113 | 1.40876 | 1.40642 | – | – | –
[2], x2 = 0.604 | 1.40784 | 1.40551 | 1.40323 | – | – | –
[2], x2 = 0.6965 | 1.40408 | 1.40199 | 1.39964 | – | – | –
[2], x2 = 0.8013 | 1.39877 | 1.39675 | 1.39454 | – | – | –
[2], x2 = 0.8505 | 1.39588 | 1.39373 | 1.39168 | – | – | –
[2], x2 = 0.8953 | 1.39295 | 1.39085 | 1.38884 | – | – | –
[2], x2 = 0.9486 | 1.38914 | 1.38704 | 1.38505 | – | – | –

CCCCCCN [1-hexanamine] + CCCCO
Details | refractive index, 293.15 K | refractive index, 298.15 K | refractive index, 303.15 K | relative permittivity, 293.15 K | relative permittivity, 298.15 K | relative permittivity, 303.15 K
[1], x2 = 0 | – | – | – | 3.965 | 3.904 | 3.845
[1], x2 = 0.051 | – | – | – | 4.258 | 4.186 | 4.12
[1], x2 = 0.0969 | – | – | – | 4.538 | 4.46 | 4.385
[1], x2 = 0.1402 | – | – | – | 4.828 | 4.739 | 4.656
[1], x2 = 0.2052 | – | – | – | 5.294 | 5.19 | 5.094
[1], x2 = 0.3095 | – | – | – | 6.164 | 6.028 | 5.898
[1], x2 = 0.4059 | – | – | – | 7.139 | 6.965 | 6.797
[1], x2 = 0.5054 | – | – | – | 8.352 | 8.121 | 7.905
[1], x2 = 0.593 | – | – | – | 9.623 | 9.333 | 9.058
[1], x2 = 0.6983 | – | – | – | 11.376 | 11.005 | 10.656
[1], x2 = 0.8047 | – | – | – | 13.472 | 13.003 | 12.566
[1], x2 = 0.8525 | – | – | – | 14.558 | 14.054 | 13.565
[1], x2 = 0.9035 | – | – | – | 15.741 | 15.182 | 14.656
[1], x2 = 0.946 | – | – | – | 16.795 | 16.197 | 15.632
[2], x2 = 0 | 1.4181 | 1.41565 | 1.41322 | – | – | –
[2], x2 = 0.0552 | 1.41812 | 1.41564 | 1.41324 | – | – | –
[2], x2 = 0.0896 | 1.418 | 1.41556 | 1.41319 | – | – | –
[2], x2 = 0.1588 | 1.41781 | 1.41542 | 1.41306 | – | – | –
[2], x2 = 0.1967 | 1.41768 | 1.41529 | 1.41294 | – | – | –
[2], x2 = 0.3035 | 1.41702 | 1.4147 | 1.4124 | – | – | –
[2], x2 = 0.4077 | 1.41603 | 1.41381 | 1.41148 | – | – | –
[2], x2 = 0.4984 | 1.41487 | 1.41267 | 1.4104 | – | – | –
[2], x2 = 0.6004 | 1.41298 | 1.41079 | 1.40852 | – | – | –
[2], x2 = 0.6977 | 1.41065 | 1.40845 | 1.40621 | – | – | –
[2], x2 = 0.7982 | 1.40746 | 1.40534 | 1.40316 | – | – | –
[2], x2 = 0.8451 | 1.40577 | 1.40368 | 1.40155 | – | – | –
[2], x2 = 0.8996 | 1.40359 | 1.40158 | 1.39949 | – | – | –
[2], x2 = 0.9461 | 1.40166 | 1.39965 | 1.39765 | – | – | –
